What was measured:
HepG2 = experiment: Cytotoxicity against human HepG2 cells assessed as inhibition of cell growth n presence of 10% fetal bovine serum measured after 48 hrs incubation by MTT assay; format: functional, cell-based; conditions: HepG2, 48 h
Huh-7 = experiment: Cytotoxicity against human Huh-7 cells assessed as inhibition of cell growth in presence of 10% fetal bovine serum measured after 48 hrs incubation by MTT assay; format: functional, cell-based; conditions: Huh-7, 48 h

`COc1c(O)c(C)cc2c(C(C)C)cc(O)c(C=O)c12` showed an IC50 (HepG2) greater than 10 µM and an IC50 (Huh-7) greater than 10 µM.

Molecule `Cc1cc2c(C(C)C)cc(O)c(C=O)c2oc1=O` has an IC50 (HepG2) of 3.7 µM and an IC50 (Huh-7) of 4 µM.

`COc1c(C)cc2c(C(C)C)cc(O)c(C=O)c2c1O` showed an IC50 (HepG2) greater than 10 µM and an IC50 (Huh-7) greater than 10 µM.

In the case of `CC(C)[C@@H]1C=Cc2coc3c2[C@H]1C[C@@H](C)C3=O`, the IC50 (HepG2) is reported as 6.8 µM and the IC50 (Huh-7) is reported as 6.4 µM.

With `CO[C@@]1(C)C[C@@H]2c3c(coc3C1=O)C(=O)C[C@H]2C(C)C` the IC50 (HepG2) was 4.8 µM and the IC50 (Huh-7) was 6.6 µM.
